Measurements as given in patent US20080317807A1, “STRONTIUM FORTIFIED CALCIUM NANO-AND MICROPARTICLE COMPOSITIONS AND METHODS OF MAKING AND USING THEREOF” (The University of Hong Kong, priority 2007, published 2008).

Assays:
[1] = tested on: fibroblast and pre-osteoblastic enriched cell populations; details: cited from earlier work
[2] = tested on: osteoporotic mice model induced by parathyroid hormone; details: cited from earlier work
[3] = tested on: rats; details: cited from earlier work
[4] = tested on: osteoblast differentiation; assay: Osteoblast differentiation by ALP staining and ALP quantification; type: cell-based
Source text: It was also observed that the administration of strontium promoted osteoblast differentiation. This was confirmed via alkaline phosphatase (ALP) staining and ALP quantification.

[5] = tested on: mature osteoblast; details: Strontium concentrations of 10^−3M or higher; cited from earlier work

SMILES	Increase of DNA synthesis [1]	Bone resorption [2]	Increase of alkaline phosphatase activities, female rats ([3]; female rats) [%]	Increase of alkaline phosphatase activities, male rats ([3]; male rats) [%]	Plasma IGF-1, males ([3]; males, after 104 weeks of treatment)	Matrix mineralization of osteoprogenitors [4]	Osteoblast differentiation (ALP staining and quantification) ([4]; particularly after 14 days)	Increase of collagen and non-collagenic protein synthesis [5] [%]
N#Cc1c(N(CC(=O)[O-])CC(=O)[O-])sc(C(=O)[O-])c1CC(=O)[O-].[Sr+2].[Sr+2] [strontium ranelate]	three- to four	inhibited bone resorption						
[Sr+2] [strontium]			56	53	Significant increase	increased matrix mineralization	increased osteoblast differentiation	34
